Test results published in PubChem BioAssay (NCI).
Several values for one entry are separate records, joined by “and”; a condition that tells them apart may be missing. Equal entries are not always repeated.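 How tested: cells in 96-well plates exposed to compound for 48 hours at five concentrations. GI50 = concentration required for 50% inhibition of growth. TGI marks complete inhibition of growth.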

What was measured:
Experiment in all cases: NCI tumour cell line growth inhibition, 48 h
COLO 205 colon = system: COLO 205 colon
EKVX NSCLC = system: EKVX NSCLC
HT29 colon = system: HT29 colon
IGROV1 ovarian = system: IGROV1 ovarian
K-562 leukemia = system: K-562 leukemia
NCI-H23 lung = system: NCI-H23 lung
SK-MEL-2 melanoma = system: SK-MEL-2 melanoma
SK-MEL-28 melanoma = system: SK-MEL-28 melanoma
TK-10 renal = system: TK-10 renal
UO-31 renal = system: UO-31 renal

Compound	GI50 (COLO 205 colon) [µM]	TGI (COLO 205 colon) [µM]	GI50 (EKVX NSCLC) [µM]	TGI (EKVX NSCLC) [µM]	GI50 (HT29 colon) [µM]	TGI (HT29 colon) [µM]	GI50 (IGROV1 ovarian) [µM]	TGI (IGROV1 ovarian) [µM]	GI50 (K-562 leukemia) [µM]	TGI (K-562 leukemia)	GI50 (NCI-H23 lung) [µM]	TGI (NCI-H23 lung) [µM]	GI50 (SK-MEL-2 melanoma) [µM]	TGI (SK-MEL-2 melanoma) [µM]	GI50 (SK-MEL-28 melanoma) [µM]	TGI (SK-MEL-28 melanoma) [µM]	GI50 (TK-10 renal) [µM]	TGI (TK-10 renal) [µM]	GI50 (UO-31 renal) [µM]	TGI (UO-31 renal) [µM]
Nc1nccc(C#Cc2cncnc2Nc2ccc(OCc3cccc(F)c3)c(Cl)c2)n1	3.96	8.6	4.51	9.85	4.57	9.05	5.1	20	4.24	> 25 µM	4.22	8.92	4.98	9.34	4.57	8.29	4.5	8.22	4.34	10.1
COC12c3ccccc3-c3ccccc3C1[C@@H](C(=O)O)[C@H]2C(=O)O (stereo partly specified)	–	> 10	–	> 10	–	> 10	–	> 10	–	> 10 µM	–	> 10	–	> 10	–	> 10	–	> 10	–	> 10
O=C1c2cccnc2-c2nc(-c3ccccc3)cc3c2c1nc1ccccc13	6	19	5.1	18.1	2.59	7.16	2.35	8.92	0.658	3.91 µM	1.73	7.48	5.53	20.1	14.8	29.8	24.3	> 85.2	3.8	11.2
Cc1ccc(C)c(NC(=O)CCC(=O)CC(=O)C(C)(C)C)c1	–	> 100	–	> 100	–	> 100	–	> 100	–	> 100 µM	–	> 100	–	> 100	–	> 100	–	> 100	–	> 100
O=S(=O)(Nc1ccc2ccc3cccc4ccc1c2c34)c1ccccc1	–	> 100	–	> 100	–	> 100	–	> 100	–	> 100 µM	–	> 100	–	> 100	–	> 100	–	> 100	–	> 100
O=C(O)Cc1ccccc1	> 1000	> 2000	> 1000	> 2000	–	> 2000	> 1000	> 2000	> 1000	> 1000 µM and 1010 µM	> 1000	> 2000	> 1000	> 2000	> 1000	> 2000	> 1000	> 2000	–	> 2000
CN(C)c1ccc(N=C(C#N)c2nc(N)nc(N3CCOCC3)n2)cc1	> 100	> 100	> 100	> 100	67.5	> 100	34	> 100	62.1	> 100 µM	> 100	> 100	> 100	> 100	19.5	48.4	23	63.6	71.7	> 100
COC(=O)Oc1nn(C(=O)OC)c(=O)c2ccccc12 (tested in a mixture with another compound)	–	> 100	–	> 100	–	> 100	–	> 100	–	> 100 µM	–	> 100	–	> 100	–	> 100	–	> 100	–	> 100
CCOC(=O)/C(=C/c1c(-c2ccccc2)[nH]c2ccccc12)C(=O)c1ccc(Cl)cc1	1.98	4.36	3.73	> 100	3.96	> 100	19.9	> 100	3.42	> 100 µM	3.47	> 100	3.99	47.5	5.26	> 100	28.2	> 100	3.86	> 100
COc1ccc2c(c1)C(=O)/C(=C/c1ccc(OCC(=O)c3ccc(Cl)cc3)cc1)O2	4.64	18	25.6	> 100	20.1	40.7	11.1	35.3	1.77	4.64 µM	11.6	31.7	26.7	99.9	15.5	30.1	26.5	43.4	10.4	25.6
Nc1ncn([C@@H]2C=C(CO)C(O)C2O)c(=O)n1 (stereo partly specified)	–	> 100	–	> 100	–	> 100	–	> 100	–	> 100 µM	–	> 100	–	> 100	–	> 100	–	> 100	–	> 100
NC(=NCc1ccccc1)N/N=C\c1ccnc2ccccc12	–	3.21	–	33.1	–	25.4	–	–	–	24.2 µM	–	31.7	–	22.1	–	25.1	–	32.1	–	22.1
COc1ccc(Nc2nc3c(N)cc(C(F)(F)F)cc3nc2-c2ccccc2)cc1	–	> 100	–	> 100	–	–	–	> 100	–	> 100 µM	–	> 100	–	> 100	–	> 100	–	> 100	–	> 100
